Results from publication PMC5426640, “A novel multifunctional peptide oligomer of bacitracin with possible bioindustrial and therapeutic applications from a Korean food-source Bacillus strain” (PLoS ONE, 2017).
Where a SMILES comes first, the peptide text is derived from it. Bridges are numbered along the chain shown (N, C = ends). [ ]: non-standard residue; d: D form. The star is where a group is joined. Ileψ(thiazoline)Cys = CC[C@H](C)[C@H](N)C1=N[C@H](C(=O)*)CS1; dOrn = NCCC[C@@H](N)C(=O)O

Tested on: NO production in LPS-stimulated RAW 264.7 cells
Test: LPS-induced NO production, Griess reaction
Format: cell-based, mouse
Details: 10, 50, or 100 μg/mL; LPS 1 μg/mL, 24 h; Griess reagent
Description: NO levels in the culture supernatants were measured by the Griess reaction. Cells (10^6 cells/mL) were seeded in 6-well plates and pretreated with the indicated concentrations of AMP for 30 min before stimulation with 1 μg/mL LPS for 24 h. The sample supernatants were mixed with an equal volume of the Griess reagent (1% sulfanilamide in 5% phosphoric acid and 0.1% naphthyl ethylene diamine dihydrochloride), and then incubated at room temperature for 10 min. The absorbance was measured at 550 nm on a microplate reader (Thermo Fisher Co.). The nitrite concentration was determined using a dilution of sodium nitrite as a standard.

CC[C@H](C)[C@H](N)C1=N[C@H](C(=O)N[C@@H](CC(C)C)C(=O)N[C@H](CCC(=O)O)C(=O)N[C@H](C(=O)N[C@H]2CCCCNC(=O)[C@H](CC(N)=O)NC(=O)[C@@H](CC(=O)O)NC(=O)[C@H](Cc3c[nH]cn3)NC(=O)[C@@H](Cc3ccccc3)NC(=O)[C@H]([C@@H](C)CC)NC(=O)[C@@H](CCCN)NC2=O)[C@@H](C)CC)CS1 [CSP32] ({Ileψ(thiazoline)Cys}-L[dE]IK[dOrn]I[dF]H[dD]N; lactam 4-C; N-terminus assumed)
Effect on LPS-induced NO production: attenuated the LPS-induced production of NO to a statistically significant extent
